Test results reported in patent publication US20250195513A1, “DEGRADATION OF IRAK4 BY CONJUGATION OF IRAK4 INHIBITORS WITH E3 LIGASE LIGAND AND METHODS OF USE” (BeiGene, Ltd., priority 2022, published 2025).
Read-outs that look alike come from different tables or passages of the source.

Target: T1, IRAK4 (Homo sapiens, UniProt Q9NWZ3)
T1 construct: endogenous in cells; host or cells: Karpas299
T1 sequence (Q9NWZ3 1-460): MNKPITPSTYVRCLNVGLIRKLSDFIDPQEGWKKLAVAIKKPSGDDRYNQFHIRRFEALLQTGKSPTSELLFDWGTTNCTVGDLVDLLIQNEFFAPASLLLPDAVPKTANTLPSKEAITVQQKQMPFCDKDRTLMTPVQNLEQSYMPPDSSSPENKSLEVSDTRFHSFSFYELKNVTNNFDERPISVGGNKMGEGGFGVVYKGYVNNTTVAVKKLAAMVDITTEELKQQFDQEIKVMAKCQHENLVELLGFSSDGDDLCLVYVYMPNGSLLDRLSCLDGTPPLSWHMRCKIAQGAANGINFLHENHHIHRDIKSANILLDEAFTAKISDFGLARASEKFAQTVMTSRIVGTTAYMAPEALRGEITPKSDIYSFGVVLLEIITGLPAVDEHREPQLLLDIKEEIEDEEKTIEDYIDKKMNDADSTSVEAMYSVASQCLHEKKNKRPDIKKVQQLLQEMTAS
Assay: IRAK4 Degradation Assay (Karpas299, HTRF/TR-FRET)
Assay type: cell-based
Details: Karpas-299 cells; for Dmax: maximum percentage of degradation
Method in brief: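 Compound potency as DC50 (IC50) came from four-parameter fits of percent IRAK4 degradation. IRAK4 was measured by HTRF (665/620 nm) in lysates of Karpas299 cells seeded at 0.2 million per well. Cells had been treated with compound dilutions for 5 or 24 h.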

[1] = 5 h treatment, read-out: IRAK4 in Karpas-299 (5 h) Dmax (%)
[2] = 5 h treatment, read-out: IRAK4 in Karpas-299 (5 h) DC50
[3] = 24 h treatment, read-out: IRAK4 in Karpas-299 (24 h) Dmax (%)
[4] = 24 h treatment, read-out: IRAK4 in Karpas-299 (24 h) DC50

Compound | Dmax [1] [%] | DC50 [2] [nM] | Dmax [3] [%] | DC50 [4] [nM]
O=C1CC[C@H](c2c(F)cc(N3CC(C(=O)N4CCN([C@H]5CC[C@H](n6cc(NC(=O)c7cnn(-c8ccnc(NCC(F)(F)F)c8)n7)c(C(F)F)n6)CC5)CC4)C3)cc2F)C(=O)N1 [Example 51, N-(3-(difluoromethyl)-1-((1r,4r)-4-(4-(1-(4-((R)-2,6-dioxopiperidin-3-yl)-3,5-difluorophenyl)azetidine-3-carbonyl)piperazin-1-yl)cyclohexyl)-1H-pyrazol-4-yl)-2-(2-((2,2,2-trifluoroethyl)amino)pyridin-4-yl)-2H-1,2,3-triazole-4-carboxamide] | 93 | 4.8 | 96 | 1.2
O=C1CC[C@H](c2c(F)cc(N3CC[C@@H](C(=O)N4CCN([C@H]5CC[C@H](n6cc(NC(=O)c7cnn(-c8ccnc(NCC(F)(F)F)c8)n7)c(C(F)F)n6)CC5)CC4)C3)cc2F)C(=O)N1 [Example 52, N-(3-(difluoromethyl)-1-((1R,4r)-4-(4-((R)-1-(4-((R)-2,6-dioxopiperidin-3-yl)-3,5-difluorophenyl)pyrrolidine-3-carbonyl)piperazin-1-yl)cyclohexyl)-1H-pyrazol-4-yl)-2-(2-((2,2,2-trifluoroethyl)amino)pyridin-4-yl)-2H-1,2,3-triazole-4-carboxamide] | – | – | 96 | 2
O=C1CCN(c2c(F)cc(N3CC[C@H](C(=O)N4CCN([C@H]5CC[C@H](n6cc(NC(=O)c7cnn(-c8ccnc(NCC9CC9)c8)n7)c(C(F)F)n6)CC5)CC4)C3)cc2F)C(=O)N1 [Example 63, 2-(2-((cyclopropylmethyl)amino)pyridin-4-yl)-N-(3-(difluoromethyl)-1-((1S,4r)-4-(4-((S)-1-(4-(2,4-dioxotetrahydropyrimidin-1(2H)-yl)-3,5-difluorophenyl)pyrrolidine-3-carbonyl)piperazin-1-yl)cyclohexyl)-1H-pyrazol-4-yl)-2H-1,2,3-triazole-4-carboxamide] | – | – | 95 | 15
CC(C)c1cc(-c2nc(C(=O)Nc3cn([C@H]4CC[C@H](N5CCN(C(=O)C6CN(c7cc(F)c([C@H]8CCC(=O)NC8=O)c(F)c7)C6)CC5)CC4)nc3C(F)F)co2)ccn1 [Example 86, N-(3-(difluoromethyl)-1-((1r,4r)-4-(4-(1-(4-((R)-2,6-dioxopiperidin-3-yl)-3,5-difluorophenyl)azetidine-3-carbonyl)piperazin-1-yl)cyclohexyl)-1H-pyrazol-4-yl)-2-(2-isopropylpyridin-4-yl)oxazole-4-carboxamide] | – | – | 94 | 8.9
O=C1CC[C@H](c2c(F)cc(N3CC(C(=O)N4CCN([C@H]5CC[C@H](n6cc7cc(NC(=O)c8cccc(C(F)(F)F)n8)c(OC8COC8)nc7n6)CC5)CC4)C3)cc2F)C(=O)N1 [Example 98, N-(2-((1r,4r)-4-(4-(1-(4-((R)-2,6-dioxopiperidin-3-yl)-3,5-difluorophenyl)azetidine-3-carbonyl)piperazin-1-yl)cyclohexyl)-6-(oxetan-3-yloxy)-2H-pyrazolo[3,4-b]pyridin-5-yl)-6-(trifluoromethyl)picolinamide] | – | – | 99 | 0.6
CC(C)(O)c1cc2nn([C@H]3CC[C@H](N4CCN(C5CCN(c6cc(F)c([C@H]7CCC(=O)NC7=O)c(F)c6)CC5)CC4)CC3)cc2cc1NC(=O)c1cccc(C(F)(F)F)n1 [Example 99, N-(2-((1r,4r)-4-(4-(1-(4-((R)-2,6-dioxopiperidin-3-yl)-3,5-difluorophenyl)piperidin-4-yl)piperazin-1-yl)cyclohexyl)-6-(2-hydroxypropan-2-yl)-2H-indazol-5-yl)-6-(trifluoromethyl)picolinamide] | – | – | 99 | 0.4
O=C1CC[C@H](c2c(F)cc(N3CC(C(=O)N4CCN([C@H]5CC[C@H](n6cc(NC(=O)c7coc(-c8ccnc(NCC9CC9)c8)n7)c(C(F)F)n6)CC5)C(=O)C4)C3)cc2F)C(=O)N1 [Example 100, 2-(2-((cyclopropylmethyl)amino)pyridin-4-yl)-N-(3-(difluoromethyl)-1-((1r,4r)-4-(4-(1-(4-((R)-2,6-dioxopiperidin-3-yl)-3,5-difluorophenyl)azetidine-3-carbonyl)-2-oxopiperazin-1-yl)cyclohexyl)-1H-pyrazol-4-yl)oxazole-4-carboxamide] | – | – | 97 | 2.2

Further compounds by falling DC50 [4], results first:

Dmax [1] [%] | DC50 [2] [nM] | Dmax [3] [%] | DC50 [4] [nM] | Compound
88 | 16 | 98 | 6.3 | COc1cc2nn(C3CCN(C4CCN(C(=O)C5CN(c6cc(F)c([C@H]7CCC(=O)NC7=O)c(F)c6)C5)CC4)CC3)cc2cc1NC(=O)c1cccc(C(F)(F)F)n1 [Example 45, (R)—N-(2-(1′-(1-(4-(2,6-dioxopiperidin-3-yl)-3,5-difluorophenyl)azetidine-3-carbonyl)-[1,4′-bipiperidin]-4-yl)-6-methoxy-2H-indazol-5-yl)-6-(trifluoromethyl)picolinamide]
– | – | 95 | 5.2 | CC(C)c1cc(-c2nc(C(=O)Nc3cn([C@H]4CC[C@H](N5CCN(C(=O)[C@@H]6CCN(c7cc(F)c([C@H]8CCC(=O)NC8=O)c(F)c7)C6)CC5)CC4)nc3C(F)F)co2)ccn1 [Example 85, N-(3-(difluoromethyl)-1-((1R,4r)-4-(4-((R)-1-(4-((R)-2,6-dioxopiperidin-3-yl)-3,5-difluorophenyl)pyrrolidine-3-carbonyl)piperazin-1-yl)cyclohexyl)-1H-pyrazol-4-yl)-2-(2-isopropylpyridin-4-yl)oxazole-4-carboxamide]
86 | 24 | 96 | 5 | O=C1CCN(c2c(F)cc(N3CC(C(=O)N4CCN([C@H]5CC[C@H](n6cc(NC(=O)c7cnn(-c8ccnc(NCC9CC9)c8)n7)c(C(F)F)n6)CC5)CC4)C3)cc2F)C(=O)N1 [Example 61, 2-(2-((cyclopropylmethyl)amino)pyridin-4-yl)-N-(3-(difluoromethyl)-1-((1r,4r)-4-(4-(1-(4-(2,4-dioxotetrahydropyrimidin-1(2H)-yl)-3,5-difluorophenyl)azetidine-3-carbonyl)piperazin-1-yl)cyclohexyl)-1H-pyrazol-4-yl)-2H-1,2,3-triazole-4-carboxamide]
– | – | 97 | 3.2 | O=C1CCN(c2c(F)cc(N3CC(C(=O)N4CCN([C@H]5CC[C@H](n6cc(NC(=O)c7coc(-c8ccnc(NCC(F)(F)F)c8)n7)c(C(F)F)n6)CC5)CC4)C3)cc2F)C(=O)N1 [Example 76, N-(3-(difluoromethyl)-1-((1r,4r)-4-(4-(1-(4-(2,4-dioxotetrahydropyrimidin-1(2H)-yl)-3,5-difluorophenyl)azetidine-3-carbonyl)piperazin-1-yl)cyclohexyl)-1H-pyrazol-4-yl)-2-(2-((2,2,2-trifluoroethyl)amino)pyridin-4-yl)oxazole-4-carboxamide]
– | – | 96 | 3.1 | O=C1CC[C@H](c2c(F)cc(N3CC(C(=O)N4CCN(c5ccc(-n6cc(NC(=O)c7coc(-c8ccnc(NCC9CC9)c8)n7)c(C(F)F)n6)cn5)CC4)C3)cc2F)C(=O)N1 [Example 90]
78 | 2.2 | 94 | 1.5 | CC(C)(O)c1cc2nc(C3CCN(C4CN(C(=O)[C@@H]5CCN(c6cc(F)c([C@H]7CCC(=O)NC7=O)c(F)c6)C5)C4)CC3)cn2cc1NC(=O)c1cccc(C(F)(F)F)n1 [Example 50, N-(2-(1-(1-((R)-1-(4-((R)-2,6-dioxopiperidin-3-yl)-3,5-difluorophenyl)pyrrolidine-3-carbonyl)azetidin-3-yl)piperidin-4-yl)-7-(2-hydroxypropan-2-yl)imidazo[1,2-a]pyridin-6-yl)-6-(trifluoromethyl)picolinamide]
– | – | 97 | 1.2 | O=C1CC[C@H](c2c(F)cc(N3CC[C@@H](C(=O)N4CCN([C@H]5CC[C@H](n6cc(NC(=O)c7coc(-c8ccnc(NCC9CC9)c8)n7)c(C(F)F)n6)CC5)C(=O)C4)C3)cc2F)C(=O)N1 [Example 101, 2-(2-((cyclopropylmethyl)amino)pyridin-4-yl)-N-(3-(difluoromethyl)-1-((1R,4r)-4-(4-((R)-1-(4-((R)-2,6-dioxopiperidin-3-yl)-3,5-difluorophenyl)pyrrolidine-3-carbonyl)-2-oxopiperazin-1-yl)cyclohexyl)-1H-pyrazol-4-yl)oxazole-4-carboxamide]
– | – | 98 | 0.6 | CC(C)(O)c1cc2nn([C@H]3CC[C@H](N4CCN(C(=O)C5CCN(c6cc(F)c([C@H]7CCC(=O)NC7=O)c(F)c6)CC5)CC4)CC3)cc2cc1NC(=O)c1cccc(C(F)(F)F)n1 [Example 47, N-(2-((1r,4r)-4-(4-(1-(4-((R)-2,6-dioxopiperidin-3-yl)-3,5-difluorophenyl)piperidine-4-carbonyl)piperazin-1-yl)cyclohexyl)-6-(2-hydroxypropan-2-yl)-2H-indazol-5-yl)-6-(trifluoromethyl)picolinamide]
